According to US9073863B2, “Cyanoquinoline compounds having activity in correcting mutant-CFTR processing and increasing ion transport and uses thereof” (The Regents of the University of California, priority 2011, dated 2015):

Target: T1, ΔF508-CFTR (Homo sapiens, UniProt P13569, DEL508-508)
T1 construct: expressed in transfected cells; host or cells: Fischer rat thyroid (FRT) epithelial cells, stably transfected
Experiment: Corrector assay, YFP fluorescence plate reader iodide influx in ΔF508-CFTR expressing FRT cells
Format: cell-based
Method in brief: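 Corrector mode: cells treated 18–24 h at 37 °C with compound (25 μM screen, 0–25 μM dose-response), then 10 min forskolin 20 μM + genistein 50 μM. Potentiator mode: 27 °C-rescued cells given forskolin 20 μM + compound (0–25 or 0–50 μM) for 10 min. Initial iodide influx rate from exponential fit of YFP quenching, normalized to background-subtracted initial fluorescence.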

T1 sequence (P13569 with tags, fused parts or gaps DEL508-508): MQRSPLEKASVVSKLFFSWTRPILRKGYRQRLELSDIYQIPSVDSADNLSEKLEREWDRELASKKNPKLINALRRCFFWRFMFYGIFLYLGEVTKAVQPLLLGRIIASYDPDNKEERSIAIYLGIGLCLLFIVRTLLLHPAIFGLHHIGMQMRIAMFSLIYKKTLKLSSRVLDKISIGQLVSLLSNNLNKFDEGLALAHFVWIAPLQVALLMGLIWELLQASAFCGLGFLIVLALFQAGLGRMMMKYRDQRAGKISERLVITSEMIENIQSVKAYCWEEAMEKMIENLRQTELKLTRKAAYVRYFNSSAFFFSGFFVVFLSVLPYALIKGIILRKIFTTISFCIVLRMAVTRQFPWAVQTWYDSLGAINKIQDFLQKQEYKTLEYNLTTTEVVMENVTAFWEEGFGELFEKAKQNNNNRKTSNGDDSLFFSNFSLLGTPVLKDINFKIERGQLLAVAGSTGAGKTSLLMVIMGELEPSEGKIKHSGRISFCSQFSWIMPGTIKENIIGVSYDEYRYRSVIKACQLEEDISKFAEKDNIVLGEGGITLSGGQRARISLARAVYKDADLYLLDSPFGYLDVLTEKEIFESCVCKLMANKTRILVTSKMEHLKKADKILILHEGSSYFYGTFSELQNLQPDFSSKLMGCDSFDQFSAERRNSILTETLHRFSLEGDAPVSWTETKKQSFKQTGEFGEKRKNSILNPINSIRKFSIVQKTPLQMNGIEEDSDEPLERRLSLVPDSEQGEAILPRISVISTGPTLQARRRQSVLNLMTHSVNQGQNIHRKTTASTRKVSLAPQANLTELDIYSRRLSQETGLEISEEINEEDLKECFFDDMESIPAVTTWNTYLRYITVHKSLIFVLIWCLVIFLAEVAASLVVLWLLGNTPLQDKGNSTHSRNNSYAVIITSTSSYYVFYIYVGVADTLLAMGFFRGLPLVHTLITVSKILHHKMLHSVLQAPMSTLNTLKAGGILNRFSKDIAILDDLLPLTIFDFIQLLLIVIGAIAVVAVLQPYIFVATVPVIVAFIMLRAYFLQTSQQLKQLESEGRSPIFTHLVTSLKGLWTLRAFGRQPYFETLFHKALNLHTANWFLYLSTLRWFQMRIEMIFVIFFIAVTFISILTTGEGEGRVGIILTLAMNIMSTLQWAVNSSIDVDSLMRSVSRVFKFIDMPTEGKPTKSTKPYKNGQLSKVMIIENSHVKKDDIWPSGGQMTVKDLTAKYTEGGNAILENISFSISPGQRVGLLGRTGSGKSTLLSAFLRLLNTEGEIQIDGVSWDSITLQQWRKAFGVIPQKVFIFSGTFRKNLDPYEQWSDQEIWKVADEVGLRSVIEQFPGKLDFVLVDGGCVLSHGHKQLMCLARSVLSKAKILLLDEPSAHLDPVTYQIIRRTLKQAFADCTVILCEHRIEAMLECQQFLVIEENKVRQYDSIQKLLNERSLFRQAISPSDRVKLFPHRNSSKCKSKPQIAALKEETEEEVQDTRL

COc1cccc(C(=O)NCCNc2nc3cc(C)cc(C)c3cc2C#N)c1 [Compound 22, N-(2-((3-Cyano-5,7-dimethylquinolin-2-yl)amino)ethyl)-3-methoxybenzamide]
iodide influx after incubation at 27° C. (Compound 22 (20 µM) or Corr-4a (10 µM), 24 h, 27° C., vs low-temperature rescue control): substantially increased iodide influx | iodide influx after incubation at 37° C. (Compound 22 (20 µM) or Corr-4a (10 µM), 24 h, 37° C., with genistein): increased iodide influx | corrector and potentiator activities, in words (concentration-dependence in corrector and potentiator I− influx assays (FIG. 2, FIG. 7)): both corrector and potentiator activities | additivity of corrector action with Corr-4a (iodide influx) (maximal concentrations of Compound 22 and Corr-4a, alone or in combination): significant additivity
